Where two headings read alike, the source gives them in different places.
Molecular target: T1, FmlHLD (Escherichia coli, UniProt P77588)
T1 construct: 6xHis (C); made in house; host or cells: E. coli C600, periplasm, pTRC99a
Test: biochemical
Type: binding, E. coli
Conditions: for inhibition at 10 µM: read-out: % Inhibition at [μM] [10], compound at 10 μM; for inhibitory potency against FmlH, in words: ELISA-based competition assay; for IC50: IC50 (μM), Table 5, Gal and GalNAc inhibition of FmlH
Protocol: Thereafter, wells were incubated with 200 μl blocking buffer (PBS+1% BSA) for 2 hours at 23° C., followed by incubation with 100 μl biotinylated FmlHLD diluted in blocking buffer to 20 μg/ml in the presence or absence of the tested compounds for 1 hr at 23° C. After washing 3× with PBS+0.05% TWEEN-20, 100 μl Streptavidin-HRP conjugate (BD Biosciences; 1:2000 dilution in blocking buffer) was added to each well for 1 hr at 23° C. After a final round of washing, plates were developed with 100 μl Tetramethylbenzidine (TMB, BD Biosciences) substrate, quenched within 1-2 min with 50 μl […], and absorbance measured at 450 nm.
Select top hit compounds and few low-scoring analogs from the virtual screening, as well as synthetic galactosides, were tested in the ELISA-based competition assay for their ability to inhibit binding of FmlHLD to ds-BSM. The ELISA assay was performed using the protocol described in Example 18. […] All compounds were tested at 100 μM; a subset was tested at 10 μM; and the strongest subset was additionally tested at 1 μM. […] Percent inhibition (PI) values are reported as the mean with standard error of the mean for galactosides tested at 100 μM (PI100), 10 μM (PI10), and 1 μM (PI1) in the ELISA-based competition assay. […] The “thio” designation indicates a sulfur linkage between the sugar and the aglycone group, the “phospho” designation indicates a phosphate group attached the C6-hydroxyl group on the sugar, and the “uro” designation indicates galacturonide as the sugar.
The ELISA assay was performed using the protocol described in Example 18. All compounds were tested at 1 μM and a subset was additionally tested at 100 nM. Average percent inhibition (PI) values are reported for compounds tested at 1 μM (PI1) and 100 nM (PI0.1).
Briefly, 1 μg bovine submaxillary mucin (Sigma) in 100 uL PBS were incubated with Immulon 4HBX 96-well plates overnight prior to treatment with 1 mU Arthrobacter ureafaciens sialidase for 1 hour at 37° C. to remove terminal sialic acid sugars. Wells were then blocked with 200 μL PBS+1% BSA for 2 hours at room temperature. Biotinylated FmlH^LD was diluted to 20 μg/mL in blocking buffer and incubated in the presence or absence of compounds serially diluted 2× down eight rows for 1 hour at room temperature. Wells were washed three times with PBS 0.05% TWEEN-20 then incubated with 100 μL of streptavidin-HRP conjugate (BD Biosciences; 1:2,000 dilution in blocking buffer) for one hour. After three additional PBS+0.05% TWEEN washes, plates were developed with 100 μL of tetramethylbenzidine (BD Biosciences) substrate and quenched with 50 μL of 1 M H2SO4. Total bound portion concentration was measured by the absorbance at 450 nm. IC50s were determined using the Graphpad Prism software.
The compounds synthesized herein were tested in the ELISA-based competition assay for their ability to inhibit binding of FmlHLD to ds-BSM. The ELISA assay was performed using the protocol described in Example 18. Compounds were tested at […], 1 μM, and 100 nM. as indicated on the table. […] ND means the corresponding value was not determined for this summary (but may be available elsewhere in the Examples).

[1] = read-out: % Inhibition at [μM] [1], compound at 1 μM, inhibition of FmlHLD binding to ds-BSM
[2] = read-out: PI(1) (average percent inhibition), compound at 1 μM, Table 4
[3] = inhibition of FmlHLD binding to ds-BSM
[4] = read-out: % Inhibition at [μM] [100], compound at 100 μM, inhibition of FmlHLD binding to ds-BSM

T1 sequence (P77588 25-182): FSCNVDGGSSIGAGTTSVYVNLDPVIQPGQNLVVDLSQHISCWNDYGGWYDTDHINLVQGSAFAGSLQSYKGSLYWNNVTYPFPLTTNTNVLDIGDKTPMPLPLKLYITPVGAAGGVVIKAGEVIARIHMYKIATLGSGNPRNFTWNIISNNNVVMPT

For `CC(=O)N[C@H]1[C@H](Oc2cccc3ccncc23)O[C@H](CO)[C@H](O)[C@@H]1O` (stereo in doubt) [AM1186], the inhibition at 1 µM [1] was 23.5% and the inhibition at 1 µM [2] was 23.5%.
`OC[C@H]1O[C@@H](Oc2ccc3ccccc3c2)[C@H](O)[C@@H](O)[C@H]1O` [2-napthyl Gal, reference compound] showed an inhibition at 10 µM [3] of 14.6% and an inhibition at 100 µM [4] of 78.8%.
With `OC[C@H]1O[C@@H](SCCc2ccccc2)[C@H](O)[C@@H](O)[C@H]1O` [2-phenylethyl-thio-galactoside, reference compound] the inhibition at 10 µM [3] was 2.31% and the inhibition at 100 µM [4] was 49.9%.
Compound `OC[C@H]1O[C@@H](Oc2c[nH]c3ccccc23)[C@H](O)[C@@H](O)[C@H]1O` [3-indoxyl Gal, reference compound] has an inhibition at 100 µM [4] of 21.7%.
In the case of `Nc1ccc(O[C@@H]2O[C@H](CO)[C@H](O)[C@H](O)[C@H]2O)cc1` [4-amino-phenyl Gal, reference compound], the inhibition at 10 µM [3] is reported as 9.8% and the inhibition at 100 µM [4] is reported as 65.1%.
Work on `CC(C)S[C@@H]1O[C@H](CO)[C@H](O)[C@H](O)[C@H]1O` [36β-thio (IPTG), reference compound] yielded an inhibition at 100 µM (read-out: PI100 (percent inhibition), galactoside at 100 μM, mean with standard error of the mean) of 23.7 ± 5.3%.
In the case of `CC(=O)N[C@@H]1[C@@H](O)[C@@H](O)[C@@H](CO)O[C@H]1N(CC(=O)NC(C)(C)C)C(=O)c1cccc2cccnc12` [AM1165, N-((2R,3R,4R,5R,6R)-3-acetamido-4,5-dihydroxy-6-(hydroxymethyl)tetrahydro-2H-pyran-2 yl)-N-(2-“(tert-butylamino)-2-oxoethyl)quinoline-8-carboxamide], the inhibition at 1 µM [1] is reported as 5.57% and the inhibition at 1 µM [2] is reported as 5.57%.
Work on `CC(=O)N[C@H]1[C@H](Oc2cccc3cccnc23)O[C@H](CO)[C@H](O)[C@@H]1O` [AM1176] yielded an inhibition at 1 µM [1] of 21% and an inhibition at 1 µM [2] of 21%.
`CC(=O)N[C@H]1[C@H](Oc2cccc3ccc(C)nc23)O[C@H](CO)[C@H](O)[C@@H]1O` [AM1179, N-((2S,3R,4R,5R,6R)-4,5-dihydroxy-6-(hydroxymethyl)-2-((2-methylquinolin-8-yl)oxy)tetrahydro-2H-pyran-3-yl)acetamide] was tested, and the inhibition at 1 µM [1] was 25.2% and the inhibition at 1 µM [2] was 25.2%.
Compound `CC(=O)N[C@H]1[C@H](Oc2ccc3cccnc3c2)O[C@H](CO)[C@H](O)[C@@H]1O` [AM1180, N-((2S,3R,4R,5R,6R)-4,5-dihydroxy-6-(hydroxymethyl)-2-(quinolin-7-yloxy)tetrahydro-2H-pyran-3-yl)acetamide] has an inhibition at 1 µM [1] of 15.4% and an inhibition at 1 µM [2] of 15.4%.
`CC(C)(C)NC(=O)CN(C(=O)c1cccc2cccnc12)[C@@H]1O[C@H](CO)[C@H](O)[C@H](O)[C@H]1O` [AM1181, N-(2-(tert-butylamino)-2-oxoethyl)-N-((2R,3R,4S,5R,6R)-3,4,5-trihydroxy-6-(hydroxymethyl)tetrahydro-2H-pyran-2-yl)quinoline-8-carboxamide] was tested, and the inhibition at 1 µM [1] was 10.8% and the inhibition at 1 µM [2] was 10.8%.
Compound `CC(=O)N[C@H]1[C@H](Oc2ccc3ncccc3c2)O[C@H](CO)[C@H](O)[C@@H]1O` [AM1184, N-((2S,3R,4R,5R,6R)-4,5-dihydroxy-6-(hydroxymethyl)-2-(quinolin-6-yloxy)tetrahydro-2H-pyran-3-yl)acetamide] has an inhibition at 1 µM [1] of 7.56% and an inhibition at 1 µM [2] of 7.56%.
With `CNC(=O)c1cccc(-c2ccccc2O[C@@H]2O[C@H](CO)[C@H](O)[C@H](O)[C@H]2NC(C)=O)c1` [AM1189, 2′-(((2S,3R,4R,5R,6R)-3-acetamido-4,5-dihydroxy-6-(hydroxymethyl)tetrahydro-2H-pyran-2-yl)oxy)-N-methyl-[1,1′-biphenyl]-3-carboxamide] the “inhibitory potency against FmlH, in words” value (“inhibitory potency” below) was “equal or slightly reduced potency”, the IC50 was 3.36 µM and the inhibition at 1 µM [1] was 12.3%. The inhibition at 1 µM [2] was 12.3%.
`CC(=O)N[C@H]1[C@H](Oc2cccc3c(C)ccnc23)O[C@H](CO)[C@H](O)[C@@H]1O` [AM1192, N-((2S,3R,4R,5R,6R)-4,5-dihydroxy-6-(hydroxymethyl)-2-((4-methylquinolin-8-yl)oxy)tetrahydro-2H-pyran-3-yl)acetamide] gave an inhibition at 1 µM [1] of 16.8% and an inhibition at 1 µM [2] of 16.8%.
Work on `CC(=O)N[C@H]1[C@H](Oc2ccc3ccncc3c2)O[C@H](CO)[C@H](O)[C@@H]1O` [AM2002, N-((2S,3R,4R,5R,6R)-4,5-dihydroxy-6-(hydroxymethyl)-2-(isoquinolin-7-yloxy)tetrahydro-2H-pyran-3-yl)acetamide] yielded an inhibition at 1 µM [1] of 20.2% and an inhibition at 1 µM [2] of 20.2%.
`CC(=O)N[C@H]1[C@H](Oc2cccc3cc4ccccc4nc23)O[C@H](CO)[C@H](O)[C@@H]1O` [AM2003, N-((2S,3R,4R,5R,6R)-2-(acridin-4-yloxy)-4,5-dihydroxy-6-(hydroxymethyl)tetrahydro-2H-pyran-3-yl)acetamide] was tested, and the inhibition at 1 µM [1] was 15.4% and the inhibition at 1 µM [2] was 15.4%.
Compound `CC(=O)N[C@H]1[C@H](Oc2ccc3cnccc3c2)O[C@H](CO)[C@H](O)[C@@H]1O` [AM2007, N-((2S,3R,4R,5R,6R)-4,5-dihydroxy-6-(hydroxymethyl)-2-(isoquinolin-6-yloxy)tetrahydro-2H-pyran-3-yl)acetamide] has an inhibition at 1 µM [1] of 12.6% and an inhibition at 1 µM [2] of 12.6%.
`CC(=O)N[C@H]1[C@H](Oc2ccccc2-c2cccc(O)c2)O[C@H](CO)[C@H](O)[C@@H]1O` [AM2021, N-((2S,3R,4R,5R,6R)-4,5-dihydroxy-2-((3′-hydroxy-[1,1′-biphenyl]-2-yl)oxy)-6-(hydroxymethyl)tetrahydro-2H-pyran-3-yl)acetamide] was tested, and the “inhibitory potency” value was “equal or slightly reduced potency”, the IC50 was 0.7 µM and the inhibition at 1 µM [1] was 17.7%. For the same compound, the inhibition at 1 µM [2] was 17.7%.
With `CC(=O)N[C@H]1[C@H](Oc2ccccc2-c2cccc(F)c2)O[C@H](CO)[C@H](O)[C@@H]1O` [AM2028, N-((2S,3R,4R,5R,6R)-2-((3′-fluoro-[1,1′-biphenyl]-2-yl)oxy)-4,5-dihydroxy-6-(hydroxymethyl)tetrahydro-2H-pyran-3-yl)acetamide] the “inhibitory potency” value was “equal or slightly reduced potency”, the IC50 was 1.48 µM and the inhibition at 1 µM [1] was 11.8%. It also gave an inhibition at 1 µM [2] of 11.8%.
With `COc1cccc(-c2ccccc2O[C@@H]2O[C@H](CO)[C@H](O)[C@H](O)[C@H]2NC(C)=O)c1` [AM2029, N-((2S,3R,4R,5R,6R)-4,5-dihydroxy-6-(hydroxymethyl)-2-((3′-methoxy-[1,1′-biphenyl]-2-yl)oxy)tetrahydro-2H-pyran-3-yl)acetamide] the “inhibitory potency” value was “equal or slightly reduced potency”, the IC50 was 2 µM and the inhibition at 1 µM [1] was 15.5%. The inhibition at 1 µM [2] was 15.5%.
With `CC(=O)N[C@H]1[C@H](Oc2ccccc2-c2cccc([N+](=O)[O-])c2)O[C@H](CO)[C@H](O)[C@@H]1O` [AM2030, N-((2S,3R,4R,5R,6R)-4,5-dihydroxy-6-(hydroxymethyl)-2-((3′-nitro-[1,1′-biphenyl]-2-yl)oxy)tetrahydro-2H-pyran-3-yl)acetamide] the “inhibitory potency” value was “equal or slightly reduced potency”, the IC50 was 2.66 µM and the inhibition at 1 µM [1] was 9.25%. The inhibition at 1 µM [2] was 9.25%.
`CC(=O)N[C@H]1[C@H](Oc2ccccc2-c2cccc(C(=O)N(C)C)c2)O[C@H](CO)[C@H](O)[C@@H]1O` [AM2032, 2′-(((2S,3R,4R,5R,6R)-3-acetamido-4,5-dihydroxy-6-(hydroxymethyl)tetrahydro-2H-pyran-2-yl)oxy)-N,N-dimethyl-[1,1′-biphenyl]-3-carboxamide] was tested, and the “inhibitory potency” value was “equal or slightly reduced potency”, the IC50 was 3.13 µM and the inhibition at 1 µM [1] was -3.61%. The inhibition at 1 µM [2] was -3.61%.

— patent publication US11773127B2, “Compounds and methods for treating bacterial infections” (Washington University, priority 2017, dated 2023)
